Measured values as given in ChEMBL document CHEMBL3046897, “Synthesis of 3-{4-[4-dimethylamino-6-(4-methyl-2-oxo-2H-chromen-7-yloxy)-[1,3,5]triazin-2-ylamino]-phenyl}-2-phenyl-5-(4-pyridin-2-yl-piperazin-1-ylmethyl)-thiazolidin-4-one and their biological evaluation” (2012).
≈ marks a conversion by molar mass, not a printed value.

Columns and labels:
Format in all cases: functional
[1] = test system: Bacillus subtilis; assay: Antibacterial activity against Bacillus subtilis at 100 ug/disk after 24 hr by paper disk diffusion method; details: read-out: IZ
[2] = test system: Klebsiella pneumoniae; assay: Antibacterial activity against Klebsiella pneumoniae after 24 hr by agar streak dilution method
[3] = test system: Escherichia coli; assay: Antibacterial activity against Escherichia coli at 100 ug/disk after 24 hr by paper disk diffusion method; details: read-out: IZ
[4] = test system: Aspergillus clavatus; assay: Antifungal activity against Aspergillus clavatus after 48 hr by agar streak dilution method
[5] = test system: Shigella flexneri; assay: Antibacterial activity against Shigella flexneri at 100 ug/disc after 24 hr by paper disk diffusion method; details: read-out: IZ
[6] = test system: Proteus vulgaris; assay: Antibacterial activity against Proteus vulgaris after 24 hr by agar streak dilution method
[7] = test system: Salmonella typhi; assay: Antibacterial activity against Salmonella enterica subsp. enterica serovar Typhi at 100 ug/disk after 24 hr by paper disk diffusion method; details: read-out: IZ
[8] = test system: Aspergillus niger; assay: Antifungal activity against Aspergillus niger at 100 ug/disk after 48 hr by paper disk diffusion method; details: read-out: IZ
[9] = test system: Bacillus subtilis; assay: Antibacterial activity against Bacillus subtilis after 24 hr by agar streak dilution method
[10] = test system: Aspergillus niger; assay: Antifungal activity against Aspergillus niger after 48 hr by agar streak dilution method
[11] = test system: Klebsiella pneumoniae; assay: Antibacterial activity against Klebsiella pneumoniae at 100 ug/disk after 24 hr by paper disk diffusion method; details: read-out: IZ
[12] = test system: Aspergillus clavatus; assay: Antifungal activity against Aspergillus clavatus at 100 ug/disc after 48 hr by paper disk diffusion method; details: read-out: IZ
[13] = test system: Salmonella typhi; assay: Antibacterial activity against Salmonella enterica subsp. enterica serovar Typhi after 24 hr by agar streak dilution method
[14] = test system: Proteus vulgaris; assay: Antibacterial activity against Proteus vulgaris at 100 ug/disk after 24 hr by paper disk diffusion method; details: read-out: IZ
[15] = test system: Escherichia coli; assay: Antibacterial activity against Escherichia coli after 24 hr by agar streak dilution method
[16] = test system: Staphylococcus aureus; assay: Antibacterial activity against Staphylococcus aureus at 100 ug/disc after 24 hr by paper disk diffusion method; details: read-out: IZ
[17] = test system: Candida albicans; assay: Antifungal activity against Candida albicans at 100 ug/disk after 48 hr by paper disk diffusion method; details: read-out: IZ
[18] = test system: Aspergillus fumigatus; assay: Antifungal activity against Aspergillus fumigatus at 100 ug/disc after 48 hr by paper disk diffusion method; details: read-out: IZ
[19] = test system: Candida albicans; assay: Antifungal activity against Candida albicans after 48 hr by agar streak dilution method
[20] = test system: Aspergillus fumigatus; assay: Antifungal activity against Aspergillus fumigatus after 48 hr by agar streak dilution method
[21] = test system: Pseudomonas aeruginosa; assay: Antibacterial activity against Pseudomonas aeruginosa after 24 hr by agar streak dilution method
[22] = test system: Staphylococcus aureus; assay: Antibacterial activity against Staphylococcus aureus after 24 hr by agar streak dilution method
[23] = test system: Shigella flexneri; assay: Antibacterial activity against Shigella flexneri after 24 hr by agar streak dilution method
[24] = test system: Pseudomonas aeruginosa; assay: Antibacterial activity against Pseudomonas aeruginosa at 100 ug/disk after 24 hr by paper disk diffusion method; details: read-out: IZ

| SMILES | zone of inhibition at 100 µg/disc [1] [mm] | MIC [2] [µg/mL] | zone of inhibition at 100 µg/disc [3] [mm] | MIC [4] [µg/mL] | zone of inhibition at 100 µg/disc [5] [mm] | MIC [6] [µg/mL] | zone of inhibition at 100 µg/disc [7] [mm] | zone of inhibition at 100 µg/disc [8] [mm] | MIC [9] [µg/mL] | MIC [10] [µg/mL] | zone of inhibition at 100 µg/disc [11] [mm] | zone of inhibition at 100 µg/disc [12] [mm] | MIC [13] [µg/mL] | zone of inhibition at 100 µg/disc [14] [mm] | MIC [15] [µg/mL] | zone of inhibition at 100 µg/disc [16] [mm] | zone of inhibition at 100 µg/disc [17] [mm] | zone of inhibition at 100 µg/disc [18] [mm] | MIC [19] [µg/mL] | MIC [20] [µg/mL] | other results |
| --- | --- | --- | --- | --- | --- | --- | --- | --- | --- | --- | --- | --- | --- | --- | --- | --- | --- | --- | --- | --- | --- |
| Cc1cc(=O)oc2cc(Oc3nc(Nc4ccc(/N=C/c5ccc(O)cc5)cc4)nc(N(C)C)n3)ccc12 | 18 | 100 (≈ 197 µM) | 20 | 100 (≈ 197 µM) | 17 | 50 (≈ 98.3 µM) | 19 | 20 | 50 (≈ 98.3 µM) | 50 (≈ 98.3 µM) | 11 | 14 | 50 (≈ 98.3 µM) | 19 | 25 (≈ 49.2 µM) | 20 | 16 | 18 | 100 (≈ 197 µM) | 50 (≈ 98.3 µM) | MIC [21]: 50 µg/mL (≈ 98.3 µM); MIC [22]: 25 µg/mL (≈ 49.2 µM); MIC [23]: 100 µg/mL (≈ 197 µM); zone of inhibition at 100 µg/disc [24]: 18 mm |
| Cc1cc(=O)oc2cc(Oc3nc(Nc4ccc(N5C(=O)C(CN6CCN(c7ccccn7)CC6)SC5c5ccc(F)cc5)cc4)nc(N(C)C)n3)ccc12 (stereo not given) | 23 | 50 (≈ 65.8 µM) | 20 | 6.25 (≈ 8.23 µM) | 21 | 12.5 (≈ 16.5 µM) | 19 | 29 | 12.5 (≈ 16.5 µM) | 6.25 (≈ 8.23 µM) | 18 | 26 | 50 (≈ 65.8 µM) | 22 | 25 (≈ 32.9 µM) | 28 | 27 | 21 | 6.25 (≈ 8.23 µM) | 12.5 (≈ 16.5 µM) | MIC [21]: 6.25 µg/mL (≈ 8.23 µM); MIC [22]: 6.25 µg/mL (≈ 8.23 µM); MIC [23]: 25 µg/mL (≈ 32.9 µM); zone of inhibition at 100 µg/disc [24]: 26 mm |
| Cc1cc(=O)oc2cc(Oc3nc(Nc4ccc(N5C(=O)CSC5c5ccc(O)cc5O)cc4)nc(N(C)C)n3)ccc12 (stereo not given) | 20 | 25 (≈ 41.8 µM) | 20 | 50 (≈ 83.5 µM) | 23 | 50 (≈ 83.5 µM) | 24 | 18 | 25 (≈ 41.8 µM) | 50 (≈ 83.5 µM) | 22 | 19 | 12.5 (≈ 20.9 µM) | 19 | 25 (≈ 41.8 µM) | 22 | 22 | 21 | 12.5 (≈ 20.9 µM) | 25 (≈ 41.8 µM) | MIC [21]: 50 µg/mL (≈ 83.5 µM); MIC [22]: 12.5 µg/mL (≈ 20.9 µM); MIC [23]: 25 µg/mL (≈ 41.8 µM); zone of inhibition at 100 µg/disc [24]: 18 mm |
| Cc1cc(=O)oc2cc(Oc3nc(Nc4ccc(/N=C/c5ccc(Cl)c(Cl)c5)cc4)nc(N(C)C)n3)ccc12 | 15 | 100 (≈ 178 µM) | 11 | 100 (≈ 178 µM) | 15 | 100 (≈ 178 µM) | 14 | < 10 | 100 (≈ 178 µM) | 100 (≈ 178 µM) | 12 | 15 | 100 (≈ 178 µM) | 12 | 100 (≈ 178 µM) | 13 | 10 | 12 | 100 (≈ 178 µM) | 100 (≈ 178 µM) | MIC [21]: 50 µg/mL (≈ 89.1 µM); MIC [22]: 100 µg/mL (≈ 178 µM); MIC [23]: 100 µg/mL (≈ 178 µM); zone of inhibition at 100 µg/disc [24]: 16 mm |
| Cc1cc(=O)oc2cc(Oc3nc(Nc4ccc(N5C(=O)C(CN6CCN(c7ccccn7)CC6)SC5c5ccc([N+](=O)[O-])cc5)cc4)nc(N(C)C)n3)ccc12 (stereo not given) | 13 | 100 (≈ 127 µM) | 16 | 50 (≈ 63.5 µM) | 14 | 100 (≈ 127 µM) | 18 | 15 | 100 (≈ 127 µM) | 100 (≈ 127 µM) | 15 | 20 | 50 (≈ 63.5 µM) | 10 | 100 (≈ 127 µM) | 16 | 13 | 18 | 100 (≈ 127 µM) | 50 (≈ 63.5 µM) | MIC [21]: 100 µg/mL (≈ 127 µM); MIC [22]: 100 µg/mL (≈ 127 µM); MIC [23]: 100 µg/mL (≈ 127 µM); zone of inhibition at 100 µg/disc [24]: 13 mm |
| COc1ccc(C2SCC(=O)N2c2ccc(Nc3nc(Oc4ccc5c(C)cc(=O)oc5c4)nc(N(C)C)n3)cc2)cc1 (stereo not given) | 16 | 50 (≈ 83.8 µM) | 12 | 100 (≈ 168 µM) | 13 | 50 (≈ 83.8 µM) | 19 | 19 | 100 (≈ 168 µM) | 50 (≈ 83.8 µM) | 17 | 16 | 50 (≈ 83.8 µM) | 18 | 100 (≈ 168 µM) | 18 | 20 | 17 | 50 (≈ 83.8 µM) | 50 (≈ 83.8 µM) | MIC [21]: 100 µg/mL (≈ 168 µM); MIC [22]: 50 µg/mL (≈ 83.8 µM); MIC [23]: 100 µg/mL (≈ 168 µM); zone of inhibition at 100 µg/disc [24]: 15 mm |
| Cc1ccc(C2SC(CN3CCN(c4ccccn4)CC3)C(=O)N2c2ccc(Nc3nc(Oc4ccc5c(C)cc(=O)oc5c4)nc(N(C)C)n3)cc2)cc1 (stereo not given) | 22 | 50 (≈ 66.1 µM) | 18 | 25 (≈ 33.1 µM) | 22 | 50 (≈ 66.1 µM) | 21 | 23 | 12.5 (≈ 16.5 µM) | 12.5 (≈ 16.5 µM) | 19 | 22 | 25 (≈ 33.1 µM) | 18 | 50 (≈ 66.1 µM) | 20 | 24 | 20 | 12.5 (≈ 16.5 µM) | 25 (≈ 33.1 µM) | MIC [21]: 50 µg/mL (≈ 66.1 µM); MIC [22]: 25 µg/mL (≈ 33.1 µM); MIC [23]: 25 µg/mL (≈ 33.1 µM); zone of inhibition at 100 µg/disc [24]: 22 mm |
| COc1ccc(C2SCC(=O)N2c2ccc(Nc3nc(Oc4ccc5c(C)cc(=O)oc5c4)nc(N(C)C)n3)cc2)cc1OC (stereo not given) | 14 | 100 (≈ 160 µM) | 11 | 100 (≈ 160 µM) | 17 | 100 (≈ 160 µM) | 14 | 15 | 100 (≈ 160 µM) | 100 (≈ 160 µM) | < 10 | 13 | 100 (≈ 160 µM) | 12 | 100 (≈ 160 µM) | 17 | < 10 | < 10 | 100 (≈ 160 µM) | 100 (≈ 160 µM) | MIC [21]: 100 µg/mL (≈ 160 µM); MIC [22]: 50 µg/mL (≈ 79.8 µM); MIC [23]: 50 µg/mL (≈ 79.8 µM); zone of inhibition at 100 µg/disc [24]: 12 mm |
| Cc1cc(=O)oc2cc(Oc3nc(Nc4ccc(N5C(=O)CSC5c5cccc(F)c5)cc4)nc(N(C)C)n3)ccc12 (stereo not given) | 19 | 50 (≈ 85.5 µM) | 23 | 25 (≈ 42.8 µM) | 22 | 50 (≈ 85.5 µM) | 20 | 20 | 50 (≈ 85.5 µM) | 25 (≈ 42.8 µM) | 18 | 21 | 25 (≈ 42.8 µM) | 17 | 25 (≈ 42.8 µM) | 17 | 18 | 17 | 50 (≈ 85.5 µM) | 50 (≈ 85.5 µM) | MIC [21]: 50 µg/mL (≈ 85.5 µM); MIC [22]: 50 µg/mL (≈ 85.5 µM); MIC [23]: 25 µg/mL (≈ 42.8 µM); zone of inhibition at 100 µg/disc [24]: 19 mm |
| Cc1ccc(/C=N/c2ccc(Nc3nc(Oc4ccc5c(C)cc(=O)oc5c4)nc(N(C)C)n3)cc2)cc1 | 17 | 100 (≈ 197 µM) | < 10 | 100 (≈ 197 µM) | 18 | 100 (≈ 197 µM) | 17 | 17 | 50 (≈ 98.7 µM) | 50 (≈ 98.7 µM) | 10 | 16 | 50 (≈ 98.7 µM) | 11 | 100 (≈ 197 µM) | 16 | 17 | 15 | 50 (≈ 98.7 µM) | 100 (≈ 197 µM) | MIC [21]: 50 µg/mL (≈ 98.7 µM); MIC [22]: 100 µg/mL (≈ 197 µM); MIC [23]: 50 µg/mL (≈ 98.7 µM); zone of inhibition at 100 µg/disc [24]: 18 mm |
